The values below come from publication PMC10531311, “Anti-Inflammatory Activities of 8-Benzylaminoxanthines Showing High Adenosine A2A and Dual A1/A2A Receptor Affinity” (International Journal of Molecular Sciences, 2023).

Read-outs that look alike come from different tables or passages of the source. Where only a bound is given, the exact number is not on record here.

Data set [1] addresses T1, human adenosine A1R (Homo sapiens, UniProt P30542).
T1 construct: expressed in transfected cells; host or cells: CHO cells
T1 sequence (P30542 1-326): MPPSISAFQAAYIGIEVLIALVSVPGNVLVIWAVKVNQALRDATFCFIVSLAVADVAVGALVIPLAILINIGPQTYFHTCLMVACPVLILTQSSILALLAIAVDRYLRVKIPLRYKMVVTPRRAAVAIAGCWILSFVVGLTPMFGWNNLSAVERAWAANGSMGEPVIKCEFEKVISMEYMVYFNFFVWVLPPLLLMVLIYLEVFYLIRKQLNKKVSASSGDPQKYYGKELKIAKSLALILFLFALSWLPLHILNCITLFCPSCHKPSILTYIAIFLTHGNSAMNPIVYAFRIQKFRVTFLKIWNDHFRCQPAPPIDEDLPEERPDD
Conditions: cited from earlier work; for Ki: human.

Data set [2] deals with T2, human adenosine A2AR (Homo sapiens, UniProt P29274).
T2 construct: expressed in transfected cells; host or cells: CHO cells
T2 sequence (P29274 whole entry): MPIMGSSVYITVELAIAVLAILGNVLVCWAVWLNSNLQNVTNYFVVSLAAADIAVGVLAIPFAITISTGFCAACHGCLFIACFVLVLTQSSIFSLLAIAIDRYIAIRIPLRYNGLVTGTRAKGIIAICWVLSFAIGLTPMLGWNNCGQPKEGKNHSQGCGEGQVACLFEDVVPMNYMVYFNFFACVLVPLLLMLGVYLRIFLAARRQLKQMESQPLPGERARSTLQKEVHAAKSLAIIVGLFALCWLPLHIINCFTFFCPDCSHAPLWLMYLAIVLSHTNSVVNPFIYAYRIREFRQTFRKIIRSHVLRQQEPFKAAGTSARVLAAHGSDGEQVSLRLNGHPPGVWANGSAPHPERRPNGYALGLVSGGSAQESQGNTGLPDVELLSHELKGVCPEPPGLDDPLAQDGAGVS
Conditions: cited from earlier work.

Data set [3] has as its target other adenosine receptors. Conditions: cited from earlier work.
The test system of data set [4] is carrageenan-induced edema in mice. Details: method as in PMID 25735490. Conditions: 100 mg/kg ip, cited from earlier work.
The subject of data set [5] is carrageenan-induced edema in rats. Details: method as in PMID 32629282. Conditions: 20 mg/kg ip; cited from earlier work.
Data set [6] has as its target T1, human adenosine A1R. Put plainly: Radioligand binding at human adenosine A1 receptor vs. [3H]CCPA. Conditions: for inhibition at 1 µM: CHO cells, read-out: A1R vs. [³H]CCPA % Inhibition ± SEM at 1 µM; for Ki: human recombinant receptor in CHO cells, read-out: A1R vs. [³H]CCPA Ki ± SEM. The procedure: (§1) Affinities for adenosine receptors were evaluated in radioligand binding assays as previously described. Human adenosine receptors were stably expressed in CHO cells. The following radioligands were used: [^3H]2-chloro-N^6-cyclopentyladenosine ([^3H]CCPA) for A1R; [^3H]3-(3-hydroxypropyl)-7-methyl-8-(m-methoxystyryl)-1-propargylxanthine ([^3H]MSX-2) for A2AR; [^3H]8-(4-(4-(4-chlorophenyl)piperazine-1-sulfonyl)phenyl)-1-propylxanthine ([^3H]PSB-603) for A2BR; [^3H]phenyl-8-ethyl-4-methyl-(8R)-4,5,7,8-tetrahydro-1H-imidazo [2,1-i]purine-5-one ([^3H]PSB-11) for A3R. Initially, compounds were tested at a concentration of 1 µM. […] At least three independent experiments were performed. Data were analyzed using GraphPad PRISM version 5.0 or higher (Graph Pad, San Diego, CA, USA). Ki were calculated using the Cheng–Prusoff equation.

In data set [7] the target is T2, human adenosine A2AR. Description: Radioligand binding at human adenosine A2A receptor vs. [3H]MSX-2. Conditions: human recombinant receptor in CHO cells; read-out: A2AR vs. [³H]MSX-2 Ki ± SEM. The procedure:
as §1

Data set [8] deals with T3, human adenosine A2BR (Homo sapiens, UniProt P29275).
T3 construct: expressed in transfected cells; host or cells: CHO cells
T3 sequence (P29275 1-332): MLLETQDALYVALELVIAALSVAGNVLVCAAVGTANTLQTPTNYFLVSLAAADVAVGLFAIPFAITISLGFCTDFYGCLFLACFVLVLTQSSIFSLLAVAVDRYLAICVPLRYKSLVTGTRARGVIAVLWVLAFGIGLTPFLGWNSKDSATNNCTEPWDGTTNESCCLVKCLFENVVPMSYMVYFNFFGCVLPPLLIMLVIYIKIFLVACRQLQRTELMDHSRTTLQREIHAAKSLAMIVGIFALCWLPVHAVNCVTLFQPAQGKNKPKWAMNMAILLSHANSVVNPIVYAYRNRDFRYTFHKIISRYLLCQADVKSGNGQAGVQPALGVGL
Put plainly: Radioligand binding at human adenosine A2B receptor vs. [3H]PSB-603. Conditions: for inhibition at 1 µM: CHO cells, read-out: A2BR vs. [³H]PSB-603 % Inhibition ± SEM at 1 µM; for Ki: human recombinant receptor in CHO cells, read-out: A2BR vs. [³H]PSB-603 Ki ± SEM. The procedure:
as §1

The target in data set [9] is T4, human adenosine A3R (Homo sapiens, UniProt P0DMS8).
T4 construct: expressed in transfected cells; host or cells: CHO cells
T4 sequence (P0DMS8 1-318): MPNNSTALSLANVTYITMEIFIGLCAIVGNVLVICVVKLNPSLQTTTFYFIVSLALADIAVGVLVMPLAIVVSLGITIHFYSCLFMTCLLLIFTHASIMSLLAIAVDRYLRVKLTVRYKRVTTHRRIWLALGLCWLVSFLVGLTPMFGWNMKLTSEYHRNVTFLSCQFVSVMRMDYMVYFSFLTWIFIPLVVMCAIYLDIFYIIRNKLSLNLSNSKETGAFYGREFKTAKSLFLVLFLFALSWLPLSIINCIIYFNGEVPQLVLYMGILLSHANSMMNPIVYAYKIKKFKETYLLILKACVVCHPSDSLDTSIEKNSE
Description: Radioligand binding at human adenosine A3 receptor vs. [3H]PSB-11. Conditions: for inhibition at 1 µM: CHO cells, read-out: A3R vs. [H³]PSB-11 % Inhibition ± SEM at 1 µM; for Ki: human recombinant receptor in CHO cells, read-out: A3R vs. [H³]PSB-11 Ki ± SEM. The procedure: as §1

The next data set concerns the target T5, human MAO B (Homo sapiens, UniProt P27338).
T5 sequence (P27338 1-520): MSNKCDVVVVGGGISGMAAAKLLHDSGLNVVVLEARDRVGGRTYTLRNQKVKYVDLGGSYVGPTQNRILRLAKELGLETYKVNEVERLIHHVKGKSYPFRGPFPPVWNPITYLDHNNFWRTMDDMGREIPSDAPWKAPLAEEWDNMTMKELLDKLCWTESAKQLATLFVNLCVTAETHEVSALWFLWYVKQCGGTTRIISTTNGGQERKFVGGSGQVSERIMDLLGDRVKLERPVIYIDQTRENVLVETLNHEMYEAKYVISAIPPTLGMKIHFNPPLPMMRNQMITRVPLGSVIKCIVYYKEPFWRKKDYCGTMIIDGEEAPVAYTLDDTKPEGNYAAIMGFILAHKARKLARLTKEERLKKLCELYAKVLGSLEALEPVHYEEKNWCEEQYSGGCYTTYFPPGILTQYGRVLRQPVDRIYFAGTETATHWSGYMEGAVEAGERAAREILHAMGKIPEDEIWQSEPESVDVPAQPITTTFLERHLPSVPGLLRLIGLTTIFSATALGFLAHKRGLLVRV
Put plainly: Human MAO B inhibition, fluorometric method. In kind it is biochemical. Conditions: mean of two independent experiments, read-out: % of hMAO B Inhibition at 1 µM. The procedure:
The compounds were tested twice in duplicates at a concentration of 1 μM by fluorometric method as previously described. Paratyramine (200 μM) was used as a substrate for the enzyme. Safinamide (1 μM; reversible) and rasagiline (1 μM; irreversible) were used as reference inhibitors.

Details of data set [10]: method as in PMID 21235574. Conditions: animal studies; cited from earlier work.
Details of data set [11]: method as in PMID 30254599. Conditions: LPD and ibotenate models; cited from earlier work.
For data set [12], the target named is T3, human adenosine A2BR. Details: method as in PMID 32629282. Conditions: cited from earlier work.
Data set [13] addresses T4, human adenosine A3R. Details: method as in PMID 32629282. Conditions: cited from earlier work.
The nature of data set [14]: PAMPA blood brain barrier permeability. The class given is in vitro ADME. The procedure: The ability of compounds, especially those intended to act in the CNS, to penetrate the blood-brain barrier (BBB) is an important property to consider in the initial stages of drug candidate screening. The PAMPA assay is a commonly used test to assess the passive permeation of the BBB [17]. In our study, caffeine was used as a highly permeable compound. […] After 5 h of incubation at room temperature, the results were analyzed by LC-MS, and the permeability coefficients (Pe) were calculated.
For permeability evaluation, a PAMPA Gentest™ pre-coated […] system, provided by Corning (Tewksbury, MA, USA), was used. The precise procedure was previously described. The permeability coefficient Pe was calculated based on the given equations. Concentrations of the tested compounds in the apical and basolateral wells were determined by LC/MS analysis using an internal standard.
For orientation: PAMPA measures passive passage across an artificial lipid membrane.

The mark [15] stands for this setting: selectivity towards other adenosine receptors.

In the case of `Cn1c(=O)c2c(nc3n2CCCN3CCc2ccc(O)cc2)n(C)c1=O` [KD-114], the Ki (commonly the dissociation constant of the complex between target and ligand, obtained from inhibition or displacement) on human adenosine A1R [1] (read-out: hA1R Ki) was above 25000 nM; at human adenosine A2AR [2] (read-out: hA2AR Ki) it was 230 nM; in data set [3] (setting [15]) it was above 1000 nM. Further, in [4] (1st, 2nd and 3rd hour), the “reduction of edema volume” value is above 90%. Besides, the “edema at the first hour with the tested compound” value in data set [4] (control 64%) is given as 2%.

With `CCn1c(=O)c2c(nc(NCc3cccc(OC)c3F)n2C)n(C)c1=O` [compound 1], the Ki is above 1000 nM at human adenosine A1R [1] (read-out: hA1R Ki), 69 nM on human adenosine A2AR [2] (read-out: A2AR Ki) and above 1000 nM in data set [3] (setting [15]). For the same compound, the “inhibition of edema, 2nd hour” value in data set [5] is reported as 44%. In [5], the “inhibition of edema, 3rd hour” value is reported as 53%.

Take `CCCn1c(=O)c2c(nc(NCc3ccc(OC)c(OC)c3)n2C)n(C)c1=O` [compound 18, 8-((3,4-dimethoxybenzyl)amino)-3,7-dimethyl-1-propyl-3,7-dihydro-1H-purine-2,6-dione]: the melting point (usually the temperature of the solid-liquid transition) was 200 to 201 °C. For the same compound, at human adenosine A1R [6], the inhibition (as a rule, the relative decrease from the control value, in per cent) at 1 µM turned out to be 7% and the inhibition constant (Ki) was above 1000 nM. Also, the inhibition constant Ki on human adenosine A2AR [7] came to 773 ± 127 nM. Also, on human adenosine A2BR [8], the inhibition at 1 µM turned out to be 17% and the Ki is above 1000 nM. At human adenosine A3R [9], the inhibition at 1 µM is -5% and the Ki was above 1000 nM. Also, at human MAO B, the inhibition at 1 µM is 2%.

Consider `Nc1nc2c(cnn2CCc2ccccc2)c2nc(-c3ccco3)nn12` [SCH-58261], for which the “effect in LPS-induced inflammation model (in words)” value in [10] is recorded as “beneficial effects”. Besides, the “effect on pro-inflammatory factors (IL-1ß, IL-6, iNOS, TNF alpha) (in words)” value in data set [11] is “caused a decrease in the above-mentioned cytokines”.

With `C#CCn1c(=O)c2c(nc(NCc3cccc(OC)c3)n2C)n(C)c1=O` [compound 25, 8-((3-Methoxybenzyl)amino)-3,7-dimethyl-1-(prop-2-yn-1-yl)-3,7-dihydro-1H-purine-2,6-dione], the melting point was in the range of 217 to 219 °C. Further, at human adenosine A1R [6], the inhibition constant (Ki) came out at 460 ± 99 nM. The inhibition constant Ki at human adenosine A2AR [7] was 225 ± 40 nM. Also, at human adenosine A2BR [8], the inhibition at 1 µM worked out at 35% and the Ki is above 1000 nM. On human adenosine A3R [9], the inhibition at 1 µM was found to be 0% and the inhibition constant (Ki) is above 1000 nM. At human MAO B, the inhibition at 1 µM was found to be 11%.

`CCCn1c(=O)c2c(nc(NCc3cccc(Cl)c3)n2C)n(C)c1=O` [compound 15, 8-((3-Chlorobenzyl)amino)-3,7-dimethyl-1-propyl-3,7-dihydro-1H-purine-2,6-dione] came in with a melting point of 185 to 187 °C. On human adenosine A1R [6], the inhibition at 1 µM turned out to be 40% and the inhibitory constant (Ki) is above 1000 nM. Further, the Ki at human adenosine A2AR [7] turned out to be 588 ± 74 nM. Besides, on human adenosine A2BR [8], the inhibition at 1 µM was 34% and the Ki was above 1000 nM. For the same compound, at human adenosine A3R [9], the inhibition at 1 µM came to 0% and the Ki was above 1000 nM. At human MAO B, the inhibition at 1 µM is 10%.

On to `CCn1c(=O)c2c(nc(NCc3ccccc3Cl)n2C)n(C)c1=O` [compound 2], for which, at human adenosine A1R [1] (1 µM), the “A1R % Inhibition ± SEM at 1 µM” value is on record as 22 ± 1%. Besides, the inhibition constant Ki at human adenosine A1R [1] (read-out: A1R Ki) is above 1000 nM; on human adenosine A2AR [2] (read-out: A2AR Ki), 71 ± 6 nM; at human adenosine A2BR [12] (human) it was above 1000 nM; at human adenosine A3R [13] (human), above 1000 nM; in [3], above 1000 nM. The “A2BR % Inhibition ± SEM at 1 µM” value at human adenosine A2BR [12] (1 µM) was 44 ± 10%. Moreover, the “A3R % Inhibition ± SEM at 1 µM” value at human adenosine A3R [13] (1 µM) was 14 ± 1%.

With `C#CCn1c(=O)c2c(nc(NCc3ccccc3Br)n2C)n(C)c1=O` [compound 20, 8-((2-Bromobenzyl)amino)-3,7-dimethyl-1-(prop-2-yn-1-yl)-3,7-dihydro-1H-purine-2,6-dione], the melting point lay within 210 to 212 °C. Moreover, on human adenosine A1R [6], the inhibition at 1 µM amounted to 44% and the Ki was above 1000 nM. For the same compound, on human adenosine A2AR [7], the inhibition constant Ki worked out at 137 ± 35 nM. At human adenosine A2BR [8], the inhibition at 1 µM is 25% and the Ki was above 1000 nM. Besides, on human adenosine A3R [9], the inhibition at 1 µM came out at 13% and the Ki was above 1000 nM. Besides, the inhibition at 1 µM on human MAO B was determined as 32%.

On to `Cn1c(=O)c2c(ncn2C)n(C)c1=O` [Caffeine, reference compound], for which the “Drug Retention” value in data set [14] amounted to 29.46%. Besides, the Papp at 5 h, 100 μM in data set [14] (100 μM in PBS, 5 h, room temperature, triplicate, read-out: Pe ± SD) is 6.57 ± 1.57 ×10⁻⁶ cm/s; in data set [14] (read-out: Permeable), at least 1.5 ×10⁻⁶ cm/s.
